Measurements: ChEMBL document CHEMBL4417631, “Oral peptide inhibitors of interleukin-23 receptor and their use to treat inflammatory bowel diseases” (2017)
Where a SMILES comes first, the peptide text is derived from it. [ ]: non-standard residue; d: D form. 2Nal = N[C@@H](Cc1ccc2ccccc2c1)C(=O)O; Pen = CC(C)(S)[C@H](N)C(=O)O; αMeK = C[C@](N)(CCCCN)C(=O)O

Assays:
[1] = Inhibition of interleukin-23 binding to rat interleukin-23 receptor incubated for 2 hrs by competitive binding ELISA
[2] = Half life in simulated intestinal fluid at 20 uM by LC-MS/MS analysis; format: ADME
Interleukin-23 receptor [3] = target: T1, Interleukin-23 receptor (Homo sapiens, UniProt Q5VWK5); experiment: Inhibition of interleukin-23 binding to human interleukin-23 receptor incubated for 2 hrs by competitive binding ELISA
T1 sequence (Q5VWK5 whole entry): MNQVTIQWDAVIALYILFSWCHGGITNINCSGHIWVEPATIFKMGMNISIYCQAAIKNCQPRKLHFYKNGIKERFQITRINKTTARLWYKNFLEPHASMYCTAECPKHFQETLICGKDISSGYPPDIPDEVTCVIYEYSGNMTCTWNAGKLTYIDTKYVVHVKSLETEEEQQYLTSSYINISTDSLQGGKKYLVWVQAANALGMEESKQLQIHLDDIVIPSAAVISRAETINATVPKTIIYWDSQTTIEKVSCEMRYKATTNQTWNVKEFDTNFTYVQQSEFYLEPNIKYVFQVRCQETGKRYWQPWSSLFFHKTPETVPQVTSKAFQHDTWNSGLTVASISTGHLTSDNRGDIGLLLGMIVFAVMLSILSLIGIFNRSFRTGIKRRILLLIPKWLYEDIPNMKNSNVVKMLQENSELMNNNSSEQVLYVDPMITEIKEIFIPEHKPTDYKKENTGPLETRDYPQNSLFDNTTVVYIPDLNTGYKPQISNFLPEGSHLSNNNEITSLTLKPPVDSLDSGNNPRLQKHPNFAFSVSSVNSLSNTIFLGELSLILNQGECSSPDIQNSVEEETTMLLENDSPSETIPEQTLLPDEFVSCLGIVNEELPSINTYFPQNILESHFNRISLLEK

Interleukin-23 receptor [4] = target: T1, Interleukin-23 receptor; experiment: Inhibition of interleukin-23 receptor in human DB cells assessed as reduction in IL-23-stimulated STAT3 phosphorylation incubated for 30 mins by HTRF assay; format: cell-based

Compound	IC50 [1]	half-life at 20 µM [2]	IC50 (Interleukin-23 receptor [3])	IC50 (Interleukin-23 receptor [4])
CC(=O)NCCCC[C@H](NC(=O)[C@](C)(CCCN)NC(=O)[C@H](Cc1ccc2ccccc2c1)NC(=O)[C@H](Cc1ccc2ccccc2c1)NC(=O)[C@@H]1CSCC[C@H](NC(C)=O)C(=O)N[C@@H](CCC(N)=O)C(=O)N[C@@H]([C@@H](C)O)C(=O)N[C@@H](Cc2c[nH]c3ccccc23)C(=O)N[C@@H](CCC(N)=O)C(=O)N1)C(=O)N[C@@H](CC(N)=O)C(=O)NCC(N)=O	0.1 to 1 µM	2 to 3 h	0.025 to 0.1 µM	< 0.01 µM
CC(=O)NCCCC[C@H](NC(=O)[C@H](CCC(C)C)NC(=O)[C@H](Cc1ccc2ccccc2c1)NC(=O)[C@H](Cc1ccc(OCCN)cc1)NC(=O)[C@@H]1CSCC[C@H](NC(C)=O)C(=O)N[C@@H](CCC(N)=O)C(=O)N[C@@H]([C@@H](C)O)C(=O)N[C@@H](Cc2c[nH]c3ccccc23)C(=O)N[C@@H](CCC(N)=O)C(=O)N1)C(=O)N[C@@H](CC(N)=O)C(=O)NCCC(N)=O	< 0.01 µM	< 1 h	< 0.01 µM	< 0.01 µM
CC(=O)N[C@H](C(=O)N[C@@H](CCC(N)=O)C(=O)N[C@H](C(=O)N[C@@H](Cc1c[nH]c2ccccc12)C(=O)N[C@@H](CCC(N)=O)C(=O)N[C@H](C(=O)N[C@@H](Cc1ccc2ccccc2c1)C(=O)N[C@@H](Cc1ccc2ccccc2c1)C(=O)N[C@@](C)(CCCCN)C(=O)N[C@@H](CCC(=O)O)C(=O)N[C@@H](CC(N)=O)C(=O)NCC(N)=O)C(C)(C)S)[C@@H](C)O)C(C)(C)S (Ac-[Pen]QTWQ[Pen][2Nal][2Nal][αMeK]ENG-NH2)	0.1 to 1 µM	3 to 6 h	0.1 to 1 µM	0.01 to 0.025 µM
COc1ccc(C[C@H](NC(=O)[C@@H]2CSCC[C@H](NC(C)=O)C(=O)N[C@@H](CCC(N)=O)C(=O)N[C@@H]([C@@H](C)O)C(=O)N[C@@H](Cc3c[nH]c4ccccc34)C(=O)N[C@@H](CCC(N)=O)C(=O)N2)C(=O)N[C@@H](Cc2ccc3ccccc3c2)C(=O)NC(C)(C)C(=O)N[C@@H](CCCCNC(C)=O)C(=O)N[C@@H](CC(N)=O)C(=O)NCC(N)=O)cc1	0.025 to 0.1 µM	> 6 h	0.01 to 0.025 µM	< 0.01 µM

More lines, now with the values ahead:

IC50 [1]	half-life at 20 µM [2]	IC50 (Interleukin-23 receptor [3])	IC50 (Interleukin-23 receptor [4])	Compound
0.1 to 1 µM	3 to 6 h	0.025 to 0.1 µM	< 0.01 µM	CC(=O)N[C@H](C(=O)N[C@@H](CCC(N)=O)C(=O)N[C@H](C(=O)N[C@@H](Cc1c[nH]c2ccccc12)C(=O)N[C@@H](CCC(N)=O)C(=O)N[C@H](C(=O)N[C@@H](Cc1ccc(O)cc1)C(=O)N[C@@H](Cc1ccc2ccccc2c1)C(=O)N[C@@](C)(CCCCN)C(=O)N[C@@H](CCC(=O)O)C(=O)N[C@@H](CC(N)=O)C(=O)NCC(N)=O)C(C)(C)S)[C@@H](C)O)C(C)(C)S
0.1 to 1 µM	3 to 6 h	0.1 to 1 µM	0.025 to 0.1 µM	CC(=O)N[C@H](C(=O)N[C@@H](CCC(N)=O)C(=O)N[C@H](C(=O)N[C@@H](Cc1c[nH]c2ccccc12)C(=O)N[C@@H](CCC(N)=O)C(=O)N[C@H](C(=O)N[C@@H](Cc1ccc(O)cc1)C(=O)N[C@@H](Cc1cccc2ccccc12)C(=O)N[C@@](C)(CCCN)C(=O)N[C@@H](CCC(=O)O)C(=O)N[C@@H](CC(N)=O)C(=O)NCC(N)=O)C(C)(C)S)[C@@H](C)O)C(C)(C)S
0.1 to 1 µM	> 6 h	0.025 to 0.1 µM	0.025 to 0.1 µM	COc1ccc(C[C@H](NC(=O)[C@@H]2CSCC[C@H](NC(C)=O)C(=O)N[C@@H](CCC(N)=O)C(=O)N[C@@H]([C@@H](C)O)C(=O)N[C@@H](Cc3c[nH]c4ccccc34)C(=O)N[C@@H](CCC(N)=O)C(=O)N2)C(=O)N[C@@H](Cc2ccc3ccccc3c2)C(=O)N[C@H](CC(N)=O)C(=O)N[C@@H](CCCCNC(C)=O)C(=O)N[C@@H](CC(N)=O)C(=O)NCC(N)=O)cc1
0.025 to 0.1 µM	3 to 6 h	0.025 to 0.1 µM	0.01 to 0.025 µM	CC(=O)NCCCC[C@H](NC(=O)[C@](C)(CCCCN)NC(=O)[C@H](Cc1ccc2ccccc2c1)NC(=O)[C@H](Cc1ccc2ccccc2c1)NC(=O)[C@@H]1CSCC[C@H](NC(C)=O)C(=O)N[C@@H](CCC(N)=O)C(=O)N[C@@H]([C@@H](C)O)C(=O)N[C@@H](Cc2c[nH]c3ccccc23)C(=O)N[C@@H](CCC(N)=O)C(=O)N1)C(=O)N[C@@H](CC(N)=O)C(=O)NCC(N)=O
